As usually defined, the melting point is the temperature, or range, at which the solid turns liquid.

Series [1] concerns Setaria faberi (SETFA). Nature of the series: Example A pre-emergence herbicidal activity, glasshouse pot test. It is filed as in vivo. To be noted: 480 h, rate 250 g/ha, evaluated 20 days after spraying, read-out: SETFA pre-emergence activity (100=total damage to plant; 0=no damage to plant). On the procedure: (§1) Monocotyledonous and dicotyledonous test plants are sown in standard soil in pots. After cultivation for one day (pre-emergence) or after 10 days cultivation (post-emergence) under controlled conditions in a glasshouse, the plants are sprayed with an aqueous spray solution derived from the formulation of the technical active ingredient in 0.6 ml acetone and 45 ml formulation solution containing 10.6% Emulsogen EL (Registry number 61791-12-6), 42.2% N-methylpyrrolidone, 42.2% dipropylene glycol monomethyl ether (Registry number 34590-94-8) and 0.2% X-77 (Registry number 11097-66-8). The test plants are then grown in a greenhouse under optimum conditions until, 15 days later for post-emergence and 20 days for pre-emergence, the test is evaluated (100=total damage to plant; 0=no damage to plant). Test Plants: Alopecurus myosuroides (ALOMY), Avena fatua (AVEFA), Lolium perenne (LOLPE), Setaria faberi (SETFA), Digitaria sanguinalis (DIGSA), Echinochloa crus-galli (ECHCG) Pre-Emergence Activity

The test system of series [2] is Avena fatua (AVEFA). Described as above. Particulars: 480 h, rate 250 g/ha, evaluated 20 days after spraying, read-out: AVEFA pre-emergence activity (100=total damage to plant; 0=no damage to plant). The format is in vivo. On the procedure:
as §1

Series [3] relates to Digitaria sanguinalis (DIGSA). The series is described as above. To be noted: 480 h, rate 250 g/ha, evaluated 20 days after spraying, read-out: DIGSA pre-emergence activity (100=total damage to plant; 0=no damage to plant). It is filed as in vivo. On the procedure:
as §1

The subject of series [4] is Lolium perenne (LOLPE). Described as above. It is filed as in vivo. Particulars: 480 h, rate 250 g/ha, evaluated 20 days after spraying, read-out: LOLPE pre-emergence activity (100=total damage to plant; 0=no damage to plant). How it is done:
as §1

In series [5] the test system is Alopecurus myosuroides (ALOMY). Described as above. The format is in vivo. To be noted: 480 h, rate 250 g/ha, evaluated 20 days after spraying, read-out: ALOMY pre-emergence activity (100=total damage to plant; 0=no damage to plant). How it is done:
as §1

Series [6] has as its system Echinochloa crus-galli (ECHCG). Described as above. Particulars: 480 h, rate 250 g/ha, evaluated 20 days after spraying, read-out: ECHOG pre-emergence activity (100=total damage to plant; 0=no damage to plant). It is filed as in vivo. On the procedure:
as §1

In series [7] the test system is Setaria faberi (SETFA). The experiment in a line: Example B pre-emergence herbicidal activity, glasshouse pot test. It is filed as in vivo. To be noted: 312 h, first table (headed Post-Emergence, taken as pre-emergence), rate 250 g/ha, evaluated after 13 days, read-out: SETFA activity (100=total damage to plant; 0=no damage to plant). Summed up: (§2)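 Seeds sown in standard soil in pots were sprayed 1 day (pre-emergence) or 8 days (post-emergence) after sowing with active ingredient in acetone/water (50:50) containing 0.5% Tween 20. Plants were held in a glasshouse at 24/16° C day/night, 14 h light, 65% humidity, and damage was scored after 13 days (0–100).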

Series [8] relates to Avena fatua (AVEFA). Described as above. It is filed as in vivo. Particulars: 312 h, first table (headed Post-Emergence, taken as pre-emergence), rate 250 g/ha, evaluated after 13 days, read-out: AVEFA activity (100=total damage to plant; 0=no damage to plant). Summed up: as §2
Series [9] relates to Alopecurus myosuroides (ALOMY). The series is described as above. Particulars: 312 h, first table (headed Post-Emergence, taken as pre-emergence), rate 250 g/ha, evaluated after 13 days, read-out: ALOMY activity (100=total damage to plant; 0=no damage to plant). It is filed as in vivo. Summed up:
as §2

Series [10] relates to Echinochloa crus-galli (ECHCG). The description is as above. To be noted: 312 h, first table (headed Post-Emergence, taken as pre-emergence), rate 250 g/ha, evaluated after 13 days, read-out: ECHCG activity (100=total damage to plant; 0=no damage to plant). It is filed as in vivo. Summed up: as §2
Series [11] relates to Setaria faberi (SETFA). Nature of the series: Example A post-emergence herbicidal activity, glasshouse pot test. The format is in vivo. To be noted: 360 h, rate 125 g/ha, evaluated 15 days after spraying, read-out: SETFA post-emergence activity (100=total damage to plant; 0=no damage to plant). On the procedure:
as §1, with “Post-Emergence” for “Pre-Emergence”

The subject of series [12] is Avena fatua (AVEFA). The description is as above. The format is in vivo. Particulars: 360 h, rate 125 g/ha, evaluated 15 days after spraying, read-out: AVEFA post-emergence activity (100=total damage to plant; 0=no damage to plant). How it is done: as §1, with “Post-Emergence” for “Pre-Emergence”
Series [13] deals with Digitaria sanguinalis (DIGSA). The description is as above. It is filed as in vivo. Particulars: 360 h, rate 125 g/ha, evaluated 15 days after spraying, read-out: DIGSA post-emergence activity (100=total damage to plant; 0=no damage to plant). How it is done: as §1, with “Post-Emergence” for “Pre-Emergence”
Series [14] has as its system Lolium perenne (LOLPE). Described as above. It is filed as in vivo. To be noted: 360 h, rate 125 g/ha, evaluated 15 days after spraying, read-out: LOLPE post-emergence activity (100=total damage to plant; 0=no damage to plant). How it is done:
as §1, with “Post-Emergence” for “Pre-Emergence”

The subject of series [15] is Alopecurus myosuroides (ALOMY). Described as above. The format is in vivo. Particulars: 360 h, rate 125 g/ha, evaluated 15 days after spraying, read-out: ALOMY post-emergence activity (100=total damage to plant; 0=no damage to plant). How it is done:
as §1, with “Post-Emergence” for “Pre-Emergence”

Series [16] concerns Echinochloa crus-galli (ECHCG). The series is described as above. The format is in vivo. Particulars: 360 h, rate 125 g/ha, evaluated 15 days after spraying, read-out: ECHOG post-emergence activity (100=total damage to plant; 0=no damage to plant). On the procedure: as §1, with “Post-Emergence” for “Pre-Emergence”
In series [17] the test system is Setaria faberi (SETFA). The experiment in a line: Example B post-emergence herbicidal activity, glasshouse pot test. The format is in vivo. Particulars: 312 h, rate 250 g/ha, evaluated after 13 days, read-out: SETFA post-emergence activity (100=total damage to plant; 0=no damage to plant). Summed up: as §2
Series [18] concerns Avena fatua (AVEFA). The series is described as above. It is filed as in vivo. To be noted: 312 h, rate 250 g/ha, evaluated after 13 days, read-out: AVEFA post-emergence activity (100=total damage to plant; 0=no damage to plant). Summed up:
as §2

Series [19] relates to Alopecurus myosuroides (ALOMY). Described as above. To be noted: 312 h, rate 250 g/ha, evaluated after 13 days, read-out: ALOMY post-emergence activity (100=total damage to plant; 0=no damage to plant). The format is in vivo. Summed up: as §2
The test system of series [20] is Echinochloa crus-galli (ECHCG). The description is as above. It is filed as in vivo. Particulars: 312 h, rate 250 g/ha, evaluated after 13 days, read-out: ECHCG post-emergence activity (100=total damage to plant; 0=no damage to plant). Summed up:
as §2

On to `CCOC(=O)OC1=C(c2c(C)cc(-c3ccc(Cl)cc3)cc2C)C(=O)NC12CCN(OC)CC2` [Compound P70], for which the melting point was 217 to 219 °C. The pest or weed control at 250 g/ha with Setaria faberi (SETFA) [1] was 100%. For the same compound, in the series with Avena fatua (AVEFA) [2], the pest or weed control at 250 g/ha was determined as 70%. The pest or weed control at 250 g/ha in series [3] came to 100%. In the series on Lolium perenne (LOLPE) [4], the pest or weed control at 250 g/ha worked out at 30%. Also, the pest or weed control at 250 g/ha in series [5] was determined as 70%. Besides, the pest or weed control at 250 g/ha in series [6] turned out to be 100%. Besides, the pest or weed control at 250 g/ha with Setaria faberi (SETFA) [7] is 100%. For the same compound, the pest or weed control at 250 g/ha in the series with Avena fatua (AVEFA) [8] stood at 90%. In addition, the pest or weed control at 250 g/ha in series [9] is 90%. Also, the pest or weed control at 250 g/ha in [10] came out at 100%. Moreover, the pest or weed control at 125 g/ha in the series with Setaria faberi (SETFA) [11] worked out at 90%. Further, the pest or weed control at 125 g/ha in the series with Avena fatua (AVEFA) [12] worked out at 10%. Besides, in [13], the pest or weed control at 125 g/ha is 100%. The pest or weed control at 125 g/ha with Lolium perenne (LOLPE) [14] was determined as 0%. Besides, the pest or weed control at 125 g/ha in [15] was determined as 0%. The pest or weed control at 125 g/ha in [16] came out at 100%. Moreover, the pest or weed control at 250 g/ha in the series with Setaria faberi (SETFA) [17] was 100%. In the series on Avena fatua (AVEFA) [18], the pest or weed control at 250 g/ha came out at 100%. Besides, in [19], the pest or weed control at 250 g/ha amounted to 100%. Besides, the pest or weed control at 250 g/ha in [20] amounted to 100%.

`CON1CCC2(CC1)NC(=O)C(c1c(C)cc(-c3ccc(Cl)cc3)cc1C)C2=O` (stereo not drawn) [Compound T23] displayed a melting point of 255 to 257 °C. The pest or weed control at 250 g/ha in the series with Setaria faberi (SETFA) [1] is 100%. Also, the pest or weed control at 250 g/ha in the series with Avena fatua (AVEFA) [2] came out at 50%. In addition, the pest or weed control at 250 g/ha in [3] was found to be 100%. Further, the pest or weed control at 250 g/ha in the series on Lolium perenne (LOLPE) [4] worked out at 40%. Moreover, the pest or weed control at 250 g/ha in series [5] is 40%. For the same compound, the pest or weed control at 250 g/ha in series [6] was 100%. For the same compound, in the series with Setaria faberi (SETFA) [7], the pest or weed control at 250 g/ha was found to be 100%. Besides, the pest or weed control at 250 g/ha with Avena fatua (AVEFA) [8] amounted to 90%. For the same compound, the pest or weed control at 250 g/ha in series [9] was 70%. Further, in series [10], the pest or weed control at 250 g/ha was 90%. Also, the pest or weed control at 125 g/ha with Setaria faberi (SETFA) [11] came to 100%. Further, the pest or weed control at 125 g/ha in the series with Avena fatua (AVEFA) [12] was 100%. In addition, the pest or weed control at 125 g/ha in [13] came out at 100%. For the same compound, the pest or weed control at 125 g/ha in the series with Lolium perenne (LOLPE) [14] worked out at 80%. Also, in series [15], the pest or weed control at 125 g/ha turned out to be 100%. Further, the pest or weed control at 125 g/ha in series [16] came out at 100%. In the series on Setaria faberi (SETFA) [17], the pest or weed control at 250 g/ha amounted to 100%. The pest or weed control at 250 g/ha in the series on Avena fatua (AVEFA) [18] came out at 100%. Besides, the pest or weed control at 250 g/ha in series [19] came to 100%. Further, in series [20], the pest or weed control at 250 g/ha was found to be 100%.

Values taken from US8722578B2, “Spiroheterocyclic pyrrolidinedione herbicidal compositions” (Syngenta Participations AG, priority 2008, dated 2014).
